In paper PMC7784547 (Bioorganic Chemistry, 2021):

Tests used:
[1] = system: A/Puerto Rico/8/34 (H1N1) with the NA-H274Y mutation; type: cell-based, influenza A virus; settings: read-out: IC50 ± SD, 274
[2] = system: influenza A/PR/8/34 (H1N1) virus; type: cell-based

| Molecule | IC50 [1] | IC50 after passage of ten generations [2] |
| --- | --- | --- |
| C=Cc1c(C)c2cc3nc(c4c5[nH]c(cc6nc(cc1[nH]2)C(C)=C6CC)c(C)c5C(=O)C4)[C@@H](CCC(=O)O)[C@@H]3C [PPa, pyropheophorbide a, reference compound] | 1050 ± 990 nM | – |
| protoporphyrin IX [PPIX] | 1240 ± 530 nM | 2.18 ± 0.71 µg/mL |
